Source: US11407767B2, “Heterocyclyl substituted pyrrolopyridines that are inhibitors of the CDK12 kinase” (The University of Nottingham, priority 2017, dated 2022)

biological target: CDK12/CycK (Homo sapiens, UniProt Q9NYV4); assay: Inhibition of CDK12 (ADP-Glo kinase assay); format: biochemical; details: 60 nM CDK12/CycK, 30 minutes pre-incubation, 1 μM ATP, 0.5 μM RBER-IRStide substrate, 1 h at 25° C., read-out: CDK12/cyclin K IC50
Method in brief: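 Compounds pre-incubated 30 min with 60 nM CDK12/CycK in HEPES pH 7.5 buffer with Mg2+/Mn2+, 1% DMSO final. Reaction started with 1 μM ATP and 0.5 μM RBER-IRStide, run 1 h at 25 °C; ADP-Glo luminescence, no-kinase blank subtracted, IC50 from sigmoidal fit of % inhibition.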

Chain of CDK12/CycK (Q9NYV4 whole entry): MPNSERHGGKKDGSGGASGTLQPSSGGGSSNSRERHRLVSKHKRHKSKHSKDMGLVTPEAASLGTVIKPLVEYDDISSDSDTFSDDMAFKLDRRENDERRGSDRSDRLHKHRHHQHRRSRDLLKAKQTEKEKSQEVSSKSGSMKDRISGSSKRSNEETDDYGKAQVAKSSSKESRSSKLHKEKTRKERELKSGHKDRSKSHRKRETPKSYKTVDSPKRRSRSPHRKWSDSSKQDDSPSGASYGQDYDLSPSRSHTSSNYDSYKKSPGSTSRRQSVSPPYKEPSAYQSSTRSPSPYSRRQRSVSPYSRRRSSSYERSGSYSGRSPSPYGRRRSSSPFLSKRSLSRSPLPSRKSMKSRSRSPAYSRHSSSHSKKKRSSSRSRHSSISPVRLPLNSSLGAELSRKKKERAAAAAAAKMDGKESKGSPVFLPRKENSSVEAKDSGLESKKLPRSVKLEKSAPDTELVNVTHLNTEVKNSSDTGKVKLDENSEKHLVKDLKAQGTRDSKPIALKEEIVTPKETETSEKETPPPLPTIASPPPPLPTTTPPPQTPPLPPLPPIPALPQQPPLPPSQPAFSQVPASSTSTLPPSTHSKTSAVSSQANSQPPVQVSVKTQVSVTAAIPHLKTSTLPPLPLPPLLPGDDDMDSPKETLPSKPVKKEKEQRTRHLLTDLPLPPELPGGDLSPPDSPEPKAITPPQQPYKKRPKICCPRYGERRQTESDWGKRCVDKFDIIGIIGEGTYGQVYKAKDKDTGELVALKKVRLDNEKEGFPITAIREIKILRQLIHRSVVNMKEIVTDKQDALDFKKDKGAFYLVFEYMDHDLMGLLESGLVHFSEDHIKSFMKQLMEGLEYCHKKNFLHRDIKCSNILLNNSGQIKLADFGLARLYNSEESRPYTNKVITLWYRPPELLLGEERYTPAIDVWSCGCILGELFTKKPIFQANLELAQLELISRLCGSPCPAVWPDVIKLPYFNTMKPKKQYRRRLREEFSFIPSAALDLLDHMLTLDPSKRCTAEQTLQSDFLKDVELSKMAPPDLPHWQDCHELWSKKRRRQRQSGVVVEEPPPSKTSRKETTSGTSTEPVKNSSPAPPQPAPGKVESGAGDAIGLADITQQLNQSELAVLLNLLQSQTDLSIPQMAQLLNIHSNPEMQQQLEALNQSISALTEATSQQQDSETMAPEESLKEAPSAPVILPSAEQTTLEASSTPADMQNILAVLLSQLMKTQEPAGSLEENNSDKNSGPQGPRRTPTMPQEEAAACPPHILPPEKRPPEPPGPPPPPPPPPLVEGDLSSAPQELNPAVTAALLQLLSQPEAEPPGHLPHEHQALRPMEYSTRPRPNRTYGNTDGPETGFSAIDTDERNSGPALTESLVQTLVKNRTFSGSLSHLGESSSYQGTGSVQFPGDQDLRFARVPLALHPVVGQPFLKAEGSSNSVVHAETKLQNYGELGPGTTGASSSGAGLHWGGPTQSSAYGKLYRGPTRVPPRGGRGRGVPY
Chain of CDK12/CycK (O75909 whole entry partner): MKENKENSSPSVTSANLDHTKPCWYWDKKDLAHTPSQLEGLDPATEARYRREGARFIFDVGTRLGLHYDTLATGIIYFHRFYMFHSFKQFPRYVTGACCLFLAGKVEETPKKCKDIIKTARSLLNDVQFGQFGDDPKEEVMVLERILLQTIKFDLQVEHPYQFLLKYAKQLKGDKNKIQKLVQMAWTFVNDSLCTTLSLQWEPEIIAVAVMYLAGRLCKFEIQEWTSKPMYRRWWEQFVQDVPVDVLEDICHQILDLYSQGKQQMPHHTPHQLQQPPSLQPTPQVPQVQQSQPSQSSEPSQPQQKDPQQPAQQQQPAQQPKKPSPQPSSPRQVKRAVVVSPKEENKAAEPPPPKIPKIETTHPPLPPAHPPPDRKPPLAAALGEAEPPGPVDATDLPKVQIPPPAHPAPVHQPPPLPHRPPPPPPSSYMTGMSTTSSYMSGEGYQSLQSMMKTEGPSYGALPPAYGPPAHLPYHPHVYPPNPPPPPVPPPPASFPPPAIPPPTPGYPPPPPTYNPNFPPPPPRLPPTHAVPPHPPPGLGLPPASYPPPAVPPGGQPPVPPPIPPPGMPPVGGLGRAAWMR

| Compound | IC50 |
| --- | --- |
| C=CC(=O)N1CC[C@H](C(=O)NCc2cc3c(-c4cnn5ncccc45)ccnc3[nH]2)C1 [Example 178, (S)-1-Acryloyl-N-((4-(pyrazolo[1,5-b]pyridazin-3-yl)-1H-pyrrolo[2,3-b]pyridin-2-yl)methyl)pyrrolidine-3-carboxamide] | 1 to 30 µM |
| C=CC(=O)N1CC[C@@H](C(=O)NCc2cc3c(-c4cnn5ncccc45)ccnc3[nH]2)C1 [Example 179, (R)-1-Acryloyl-N-((4-(pyrazolo[1,5-b]pyridazin-3-yl)-1H-pyrrolo[2,3-b]pyridin-2-yl)methyl)pyrrolidine-3-carboxamide] | 1 to 30 µM |
| C=CC(=O)Nc1cccc(C(=O)NCc2cc3c(-c4cnn5ncccc45)ccnc3[nH]2)c1 [Example 180, 3-Acrylamido-N-((4-(pyrazolo[1,5-b]pyridazin-3-yl)-1H-pyrrolo[2,3-b]pyridin-2-yl)methyl)benzamide] | 0.1 to 1 µM |
| CN(C)C/C=C/C(=O)Nc1ccc(C(=O)NCc2cc3c(-c4cnn5ncccc45)ccnc3[nH]2)cc1 [Example 181] | 0.1 to 1 µM |
| C=CC(=O)N1CCC[C@@H]1C(=O)NCc1cc2c(-c3cnn4ncccc34)ccnc2[nH]1 [Example 182, (R)-1-Acryloyl-N-((4-(pyrazolo[1,5-b]pyridazin-3-yl)-1H-pyrrolo[2,3-b]pyridin-2-yl)methyl)pyrrolidine-2-carboxamide] | 1 to 30 µM |
| C=CC(=O)N1CCC[C@H]1C(=O)NCc1cc2c(-c3cnn4ncccc34)ccnc2[nH]1 [Example 183, (S)-1-Acryloyl-N-((4-(pyrazolo[1,5-b]pyridazin-3-yl)-1H-pyrrolo[2,3-b]pyridin-2-yl)methyl)pyrrolidine-2-carboxamide] | 1 to 30 µM |
| C=CC(=O)N1CCC[C@@H](C(=O)NCc2cc3c(-c4cnn5ncccc45)ccnc3[nH]2)C1 [Example 184, (R)-1-Acryloyl-N-((4-(pyrazolo[1,5-b]pyridazin-3-yl)-1H-pyrrolo[2,3-b]pyridin-2-yl)methyl)piperidine-3-carboxamide] | 1 to 30 µM |
| C=CC(=O)Nc1ccc(C(=O)N(C)Cc2cc3c(-c4cnn5ncccc45)ccnc3[nH]2)cc1 [Example 185, 4-Acrylamido-N-methyl-N-((4-(pyrazolo[1,5-b]pyridazin-3-yl)-1H-pyrrolo[2,3-b]pyridin-2-yl)methyl)benzamide] | < 0.1 µM |
| C=CC(=O)N1CCC[C@H](C(=O)NCc2cc3c(-c4cnn5ncccc45)ccnc3[nH]2)C1 [Example 186, (S)-1-Acryloyl-N-((4-(pyrazolo[1,5-b]pyridazin-3-yl)-1H-pyrrolo[2,3-b]pyridin-2-yl)methyl)piperidine-3-carboxamide] | 1 to 30 µM |
| C=CC(=O)N[C@H]1CC[C@@H](C(=O)NCc2cc3c(-c4cnn5ncccc45)ccnc3[nH]2)CC1 [Example 187, (1s,4s)-4-Acrylamido-N-((4-(pyrazolo[1,5-b]pyridazin-3-yl)-1H-pyrrolo[2,3-b]pyridin-2-yl)methyl)cyclohexane-1-carboxamide] | 1 to 30 µM |
| CCC(=O)Nc1ccc(C(=O)NCc2cc3c(-c4cnn5ncccc45)ccnc3[nH]2)cc1 [Example 188, 4-Propionamido-N-((4-(pyrazolo[1,5-b]pyridazin-3-yl)-1H-pyrrolo[2,3-b]pyridin-2-yl)methyl)benzamide] | 1 to 30 µM |
| C=CC(=O)NCc1ccc(C(=O)NCc2cc3c(-c4cnn5ncccc45)ccnc3[nH]2)cc1 [Example 189, 4-(Acrylamidomethyl)-N-((4-(pyrazolo[1,5-b]pyridazin-3-yl)-1H-pyrrolo[2,3-b]pyridin-2-yl)methyl)benzamide] | 1 to 30 µM |
| C=CC(=O)N(C)c1ccc(C(=O)NCc2cc3c(-c4cnn5ncccc45)ccnc3[nH]2)cc1 [Example 190, 4-(N-Methylacrylamido)-N-((4-(pyrazolo[1,5-b]pyridazin-3-yl)-1H-pyrrolo[2,3-b]pyridin-2-yl)methyl)benzamide] | 0.1 to 1 µM |
| C=CC(=O)N[C@H]1CC[C@H](C(=O)NCc2cc3c(-c4cnn5ncccc45)ccnc3[nH]2)CC1 [Example 191, (1r,4r)-4-Acrylamido-N-((4-(pyrazolo[1,5-b]pyridazin-3-yl)-1H-pyrrolo[2,3-b]pyridin-2-yl)methyl)cyclohexane-1-carboxamide] | 1 to 30 µM |
| C=CC(=O)NCc1cccc(C(=O)NCc2cc3c(-c4cnn5ncccc45)ccnc3[nH]2)c1 [Example 192, 3-(Acrylamidomethyl)-N-((4-(pyrazolo[1,5-b]pyridazin-3-yl)-1H-pyrrolo[2,3-b]pyridin-2-yl)methyl)benzamide] | 1 to 30 µM |
| C=CC(=O)N1CCC(CC(=O)NCc2cc3c(-c4cnn5ncccc45)ccnc3[nH]2)CC1 [Example 193, 2-(1-Acryloylpiperidin-4-yl)-N-((4-(pyrazolo[1,5-b]pyridazin-3-yl)-1H-pyrrolo[2,3-b]pyridin-2-yl)methyl)acetamide] | 1 to 30 µM |
| C=CC(=O)N1CCC[C@H]1C(=O)N1CCC(c2cc3c(-c4cnn5ncccc45)ccnc3[nH]2)CC1 [Example 194, (S)-1-(2-(4-(4-(Pyrazolo[1,5-b]pyridazin-3-yl)-1H-pyrrolo[2,3-b]pyridin-2-yl)piperidine-1-carbonyl)pyrrolidin-1-yl)prop-2-en-1-one] | < 0.1 µM |
| C=CC(=O)N1CCC[C@@H]1C(=O)N1CCC(c2cc3c(-c4cnn5ncccc45)ccnc3[nH]2)CC1 [Example 195, (R)-1-(2-(4-(4-(pPyrazolo[1,5-b]pyridazin-3-yl)-1H-pyrrolo[2,3-b]pyridin-2-yl)piperidine-1-carbonyl)pyrrolidin-1-yl)prop-2-en-1-one] | < 0.1 µM |
| C=CC(=O)N1CCC2(CCCN(Cc3cc4c(-c5cnn6ncccc56)ccnc4[nH]3)C2)C1 (stereo not drawn) [Example 198, 1-(7-((4-(Pyrazolo[1,5-b]pyridazin-3-yl)-1H-pyrrolo[2,3-b]pyridin-2-yl)methyl)-2,7-diazaspiro[4.5]decan-2-yl)prop-2-en-1-one] | 1 to 30 µM |
| C=CC(=O)NCC1CCN(Cc2cc3c(-c4cnn5ncccc45)ccnc3[nH]2)C1 (stereo not drawn) [Example 199, N-((1-((4-(Pyrazolo[1,5-b]pyridazin-3-yl)-1H-pyrrolo[2,3-b]pyridin-2-yl)methyl)pyrrolidin-3-yl)methyl)acrylamide] | 1 to 30 µM |
| N#CCC(=O)N1CCC[C@H]1C(=O)NCCc1cc2c(-c3cnn4ncccc34)ccnc2[nH]1 [Example 201, (S)-1-(2-Cyanoacetyl)-N-(2-(4-(pyrazolo[1,5-b]pyridazin-3-yl)-1H-pyrrolo[2,3-b]pyridin-2-yl)ethyl)pyrrolidine-2-carboxamide] | 0.1 to 1 µM |
| CC(C)=C(C#N)C(=O)N1CCC[C@H]1C(=O)NCCc1cc2c(-c3cnn4ncccc34)ccnc2[nH]1 [Example 202, (S)-1-(2-Cyano-3-methylbut-2-enoyl)-N-(2-(4-(pyrazolo[1,5-b]pyridazin-3-yl)-1H-pyrrolo[2,3-b]pyridin-2-yl)ethyl)pyrrolidine-2-carboxamide] | 1 to 30 µM |
| C=CC(=O)N1CCC[C@H]1C(=O)N[C@H]1C[C@@H](c2cc3c(-c4cnn5ncccc45)ccnc3[nH]2)C1 [Example 205, (S)-1-Acryloyl-N-((1 S,3R)-3-(4-(pyrazolo[1,5-b]pyridazin-3-yl)-1H-pyrrolo[2,3-b]pyridin-2-yl)cyclobutyl)pyrrolidine-2-carboxamide] | < 0.1 µM |
| C=CC(=O)N1CCC[C@H](C(=O)N2CCC(c3cc4c(-c5cnn6ncccc56)ccnc4[nH]3)C2)C1 (stereo partly drawn) [Example 206, 1-((3S)-3-(3-(4-(Pyrazolo[1,5-b]pyridazin-3-yl)-1H-pyrrolo[2,3-b]pyridin-2-yl)pyrrolidine-1-carbonyl)piperidin-1-yl)prop-2-en-1-one] | < 0.1 µM |
